From patent US11072588B2, “Barbituric acid derivatives comprising cationic and lipophilic groups” (UNIVERSITETET I TROMSØ—NORGES ARKTISKE UNIVERSITET, priority 2017, dated 2021)
In brackets after ≈: the same amount, converted by molar mass.

Legend:
E. coli 50857972 = assay: MIC, multi-resistant clinical isolate; assay type: cell-based, Escherichia coli; conditions: for MIC: Escherichia coli, read-out: Antimicrobial activity (MIC); for selectivity index (EC50/MIC): RBC EC50 / MIC
E. coli 50579417 = assay: MIC, multi-resistant clinical isolate; assay type: cell-based, Escherichia coli; conditions: for MIC: Escherichia coli, read-out: Antimicrobial activity (MIC); for selectivity index (EC50/MIC): RBC EC50 / MIC
E. coli 50639799 = assay: MIC, multi-resistant clinical isolate; assay type: cell-based, Escherichia coli; conditions: for MIC: Escherichia coli, read-out: Antimicrobial activity (MIC); for selectivity index (EC50/MIC): RBC EC50 / MIC
E. faecium 50673722 = assay: MIC, multi-resistant clinical isolate; assay type: cell-based, Enterococcus faecium; conditions: for MIC: Enterococcus faecium, read-out: Antimicrobial activity (MIC); for selectivity index (EC50/MIC): RBC EC50 / MIC
Experimental: (§1) Working solutions of the test derivatives were prepared with up to 100% DMSO and stored at −20° C. If necessary, the solutions were heated to 40-80° C. before testing to facilitate complete dissolution. Double-distilled water was used in all dilutions prepared. […] A microdilution susceptibility test was used for MIC determination according to Clinical and Laboratory Standards Institute, “Methods for Dilution Antimicrobial Sisceptibility Tests for Bacteria That Graw Aerobically”, Approved Standard M07-A9, edition 2012, with modifications as described by Igumnova et al (Bioorg Med Chem, 2016, 24 (22), 5884-5894).
(§2) Briefly, the bacterial inoculum was adjusted to approximately 2.5-3×10^4 cells/mL in Mueller-Hinton broth (MHB, Difco Laboratories, USA), and incubated in a ratio of 1:1 with test derivatives in polystyrene 96-well flat-bottom microplates (NUNC, Roskilde, Denmark). Positive growth control (without test derivatives) and negative control (without bacteria) were included. The reference antibiotic was oxytetracycline hydrochloride (Sigma Aldrich, Saint Louis, Mo., USA). The microplates were incubated in an EnVision microplate reader (Perkin-Elmer, Turku, Finland) placed in an incubator set to 35° C. for 48 h. The MIC value was defined as the lowest concentration of derivative resulting in no bacterial growth as determined by OD600 measurement. All derivatives were tested in three parallels.
(§3) The MIC was determined as explained above with some exceptions; working solutions of test derivatives were prepared from concentrated DMSO stocks stored at room temperature, the density of the bacterial inoculum was increased 40× to 1-1.2×10^6 cells/mL, enterococci were incubated in Brain Heart Infusion broth (BHIB, Difco Laboratories, USA), the microplates were incubated for 24 h, and the derivatives were tested in four parallels.

E. faecium 50758899 = assay: MIC, multi-resistant clinical isolate; assay type: cell-based, Enterococcus faecium; conditions: for MIC: Enterococcus faecium, read-out: Antimicrobial activity (MIC); for selectivity index (EC50/MIC): RBC EC50 / MIC
Experimental: as §1, §2, §3

E. faecium K36-18 = assay: MIC, multi-resistant clinical isolate; assay type: cell-based, Enterococcus faecium; conditions: for MIC: Enterococcus faecium, K3618, read-out: Antimicrobial activity (MIC); for selectivity index (EC50/MIC): RBC EC50 / MIC, E. faecium K36-18
Experimental: as §1, §2, §3

E. faecium 50901530 = assay: MIC, multi-resistant clinical isolate; assay type: cell-based, Enterococcus faecium; conditions: for MIC: Enterococcus faecium, read-out: Antimicrobial activity (MIC); for selectivity index (EC50/MIC): RBC EC50 / MIC
Experimental: as §1, §2, §3

[1] = tested on: antibiotic susceptible Gram-positive and Gram-negative reference strains; assay: MIC assay, ranges over the reference strains; assay type: cell-based; conditions: range over S. aureus, C. glutamicum, E. coli, P. aeruginosa reference strains; read-out: MIC values against all the reference strains
Experimental: as §1, §2

[2] = Determination of haemolytic activity; assay type: cell-based; conditions: human red blood cells (washed, from heparinized fresh blood); human RBCs, 1 h, 37° C.; read-out: RBC: haemolytic activity against human RBCs (EC50)
Experimental: Hemolysis was determined using a heparinized fraction (1000 IU/mL) of freshly drawn blood. Blood collected in EDTA containing test tubes (Vacutest®, KIMA, Arzergrande, Italy) was used for determination of the hematocrit (hct). The heparinized blood was washed 3× with pre-warmed PBS and adjusted to a final hct of 4%. Derivatives in DMSO (50 mM) were added to a 96-well polypropylene V-bottom plate (NUNC, Fisher Scientific, Oslo, Norway) and serially diluted. The test concentration range was 500-4 μM with DMSO contents ≤1%. A solution of 1% triton X-100 was used as positive control for 100% hemolysis. As negative control a solution of 1% DMSO in PBS buffer was included. No signs of DMSO toxicity were detected. RBCs (1% v/v final concentration) were added to the well plate and incubated at 37° C. and 800 rpm for 1 h. After centrifugation (5 min, 3000 g), 100 μL of each well were transferred to a 96-well flat bottom plate and absorbance was measured at 545 nm with a microplate reader (VersaMax™, Molecular Devices, Sunnyvale, Calif., USA). The percentage of hemolysis was calculated as the ratio of the absorbance in the derivative-treated and surfactant treated samples, corrected for the PBS background. Three independent experiments were performed and EC50 values are presented as averages.

[3] = tested on: Escherichia coli ATCC 25922; assay: MIC assay, antibiotic susceptible reference strain; assay type: cell-based; conditions: Escherichia coli, ATCC25922, read-out: Antimicrobial activity (MIC) E. c
Experimental: as §1, §2

[4] = tested on: Pseudomonas aeruginosa PA01, DSM 19880 (ATCC 15692); assay: MIC assay, antibiotic susceptible reference strain; assay type: cell-based; conditions: Pseudomonas aeruginosa, read-out: Antimicrobial activity (MIC) P. a
Experimental: as §1, §2

[5] = tested on: Staphylococcus aureus ATCC 9144; assay: MIC assay, antibiotic susceptible reference strain; assay type: cell-based; conditions: Staphylococcus aureus, ATCC9144, read-out: Antimicrobial activity (MIC) S. a
Experimental: as §1, §2

[6] = tested on: Corynebacterium glutamicum ATCC 13032; assay: MIC assay, antibiotic susceptible reference strain; assay type: cell-based; conditions: Corynebacterium glutamicum, ATCC13032, read-out: Antimicrobial activity (MIC) C. g
Experimental: as §1, §2

S. epidermidis = assay: Anti-biofilm activity (inhibition of biofilm formation); assay type: cell-based; conditions: Staphylococcus epidermidis, read-out: Anti-biofilm IC50
K. pneumoniae K47-25 = assay: MIC, multi-resistant clinical isolate; assay type: cell-based, Klebsiella pneumoniae; conditions: for MIC: Klebsiella pneumoniae, K4725, 24 h, read-out: Antimicrobial activity (MIC)
Experimental: as §1, §2, §3

K. pneumoniae 50531633 = assay: MIC, multi-resistant clinical isolate; assay type: cell-based, Klebsiella pneumoniae; conditions: K. pneumoniae 50531633, resistant to colistin; for MIC: Klebsiella pneumoniae, 24 h, read-out: Antimicrobial activity (MIC); for selectivity index (EC50/MIC): RBC EC50 / MIC
Experimental: as §1, §2, §3

E. faecium TUH50-22 = assay: MIC, multi-resistant clinical isolate; assay type: cell-based, Enterococcus faecium
Experimental: as §1, §2, §3

K. pneumoniae 50625602 = assay: MIC, multi-resistant clinical isolate; assay type: cell-based, Klebsiella pneumoniae; conditions: Klebsiella pneumoniae, read-out: Antimicrobial activity (MIC)
Experimental: as §1, §2, §3

| Structure (SMILES) | MIC (E. coli 50857972) | selectivity index (EC50/MIC) (E. coli 50857972) | MIC (E. coli 50579417) | selectivity index (EC50/MIC) (E. coli 50579417) | MIC (E. coli 50639799) | selectivity index (EC50/MIC) (E. coli 50639799) | MIC (E. faecium 50673722) | selectivity index (EC50/MIC) (E. faecium 50673722) | MIC (E. faecium 50758899) | selectivity index (EC50/MIC) (E. faecium 50758899) | MIC (E. faecium K36-18) | selectivity index (EC50/MIC) (E. faecium K36-18) | MIC (E. faecium 50901530) | selectivity index (EC50/MIC) (E. faecium 50901530) | EC50 at 1 h [2] | MIC [3] | MIC [4] | MIC [5] | MIC [6] | IC50 (S. epidermidis) | also measured |
| --- | --- | --- | --- | --- | --- | --- | --- | --- | --- | --- | --- | --- | --- | --- | --- | --- | --- | --- | --- | --- | --- |
| NCCCCN1C(=O)N(CCCCN)C(=O)C(Cc2cc(Br)cc(Br)c2)(Cc2cc(Br)cc(Br)c2)C1=O [7(ii)] | 8 µg/mL (≈ 10.4 µM) | (10) | 8 µg/mL (≈ 10.4 µM) | (10) | 8 µg/mL (≈ 10.4 µM) | (10) | 4 µg/mL (≈ 5.22 µM) | (21) | 4 µg/mL (≈ 5.22 µM) | (21) | 8 µg/mL (≈ 10.4 µM) | (10) | 4 µg/mL (≈ 5.22 µM) | (21) | 83 µg/mL (≈ 108 µM) | 4 µg/mL (≈ 5.22 µM) | 8 µg/mL (≈ 10.4 µM) | 4 µg/mL (≈ 5.22 µM) | 1 µg/mL (≈ 1.31 µM) | 6 µg/mL (≈ 7.83 µM) | MIC [1]: 1 to 8 µg/mL (≈ 1.31 to 10.4 µM); MIC (K. pneumoniae K47-25): 16 µg/mL (≈ 20.9 µM); selectivity index (EC50/MIC) (K. pneumoniae K47-25; RBC EC50 / MIC, K. pneumoniae K47-25, resistant to colistin): (5); MIC (K. pneumoniae 50531633): 8 µg/mL (≈ 10.4 µM); selectivity index (EC50/MIC) (K. pneumoniae 50531633): (10) |
| NCCCCN1C(=O)N(CCCCN)C(=O)C(Cc2ccc3ccccc3c2)(Cc2ccc3ccccc3c2)C1=O [7(iv), 1,3-bis(4-aminobutyl)-5,5-bis(naphtalen-2-yl-methyl)-pyrimidin-2,4,6(1H,3H,5H)-trione] | 16 µg/mL (≈ 29.1 µM) | (15) | 16 µg/mL (≈ 29.1 µM) | (15) | 16 µg/mL (≈ 29.1 µM) | (15) | 16 µg/mL (≈ 29.1 µM) | (15) | 16 µg/mL (≈ 29.1 µM) | (15) | 16 µg/mL (≈ 29.1 µM) | (15) | 8 µg/mL (≈ 14.5 µM) | (30) | 243 µg/mL (≈ 441 µM) | 16 µg/mL (≈ 29.1 µM) | 16 µg/mL (≈ 29.1 µM) | 8 µg/mL (≈ 14.5 µM) | 1 µg/mL (≈ 1.82 µM) | 4 µg/mL (≈ 7.26 µM) | MIC (E. faecium TUH50-22; Enterococcus faecium, TUH5022, read-out: Antimicrobial activity (MIC)): 8 µg/mL (≈ 14.5 µM); selectivity index (EC50/MIC) (E. faecium TUH50-22; RBC EC50 / MIC): (30); MIC (K. pneumoniae 50625602): > 32 µg/mL; MIC (K. pneumoniae K47-25): > 32 µg/mL; MIC (K. pneumoniae 50531633): 32 µg/mL (≈ 58.1 µM); selectivity index (EC50/MIC) (K. pneumoniae 50531633): (8) |
